Data published in patent publication US20200316038A1, “METHODS AND COMPOSITIONS FOR TREATING UREA CYCLE DISORDERS, IN PARTICULAR OTC DEFICIENCY” (CAMP4 THERAPEUTICS CORPORATION, priority 2017, published 2020).
Counter-ions that a name gives are not always drawn. Like-named read-outs stand apart in the source and are kept apart here.

Columns and labels:
[1] = system: OTC; assay: OTC expression modulated by compounds (OTC/Geo Mean of HKs, DMSO = 1); type: cell-based, human; settings: OTC expression; compound at 10 uM final concentration
Protocol: Analysis of the fold changes in expression as measured by qRT-PCR were performed using the technique below. The control was DMSO, and the treatment was the selected compound (CPD). The internal control was GAPDH or B-Actin, and the gene of interest is the target. First, the averages of the 4 conditions were calculated for normalization: DMSO:GAPDH, DMSO:Target, CPD: GAPDH, and CPD:Target. Next, the ΔCT of both control and treatment were calculated to normalize to internal control (GAPDH) using (DMSO:Target)−(DMSO:GAPDH)=ΔCT control and (CPD:Target)−(CPD: GAPDH)=ΔCT experimental. Then, the ΔΔCT was calculated by ΔCT experimental−ΔCT control.

[2] = system: CPS1; assay: RNA-seq, CPS1 expression in compound-treated primary human hepatocytes; type: cell-based
[3] = system: NAGS
[4] = system: multiple urea cycle-related genes; assay: RNA-seq, compounds that modulate multiple urea cycle-related genes; type: cell-based; settings: primary human hepatocytes; for Up-regulated Genes: urea cycle-related genes significantly increased by the compound
[5] = RNA-seq, primary human hepatocytes, compounds that significantly increase NAGS expression

| SMILES | Max Value (OTC/Geo Mean of HKs; DMSO = 1) [1] | further results |
| --- | --- | --- |
| C=CCNC1=C2C[C@@H](C)C[C@H](OC)[C@H](O)[C@@H](C)/C=C(\C)[C@H](OC(N)=O)[C@@H](OC)/C=C\C=C(/C)C(=O)NC(=CC1=O)C2=O [17-AAG (Tanespimycin), Tanespimycin] | 1.69 | – |
| N#CC(c1ccnc(OCc2ccc(CN3CCOCC3)cc2)n1)c1nc2ccccc2s1 (stereo not shown) [AS602801 (Bentamapimod), Bentamapimod] | 2.75 | – |
| Cc1cc(Nc2nc(N[C@@H](C)c3ncc(F)cn3)ncc2Cl)[nH]n1 [AZD1480] | 1.46 | – |
| Cc1ccc(-n2nc(C(C)(C)C)cc2NC(=O)Nc2ccc(OCCN3CCOCC3)c3ccccc23)cc1 [BIRB 796, Doramapimod] | 2.61 | – |
| O=C(NCCCNc1nc(Nc2cccc(NC(=O)N3CCCC3)c2)ncc1I)c1cccs1 [BX795] | 2.57 | – |
| CC1(C)CC[C@]2(C(=O)O)CC[C@]3(C)[C@H](C(=O)C=C4[C@@]5(C)C=C(C#N)C(=O)C(C)(C)[C@@H]5CC[C@]43C)[C@@H]2C1 [Bardoxolone] | 2.76 | – |
| CCS(=O)(=O)N1CC(CC#N)(n2cc(-c3ncnc4[nH]ccc34)cn2)C1 [Baricitinib] | 1.66 | – |
| N#CC(C#N)=NNc1cccc(Cl)c1 [CCCP] | 4.06 | – |
| C=CC(=O)Nc1cccc(Nc2nc(Nc3ccc(N4CCN(C(C)=O)CC4)cc3OC)ncc2C(F)(F)F)c1 [CO-1686 (Rociletinib), Rociletinib] | – | Fold change (Log 2) vs untreated [2]: 0.89 Log 2; NAGS expression, Fold change (Log 2) vs untreated [3]: 1.05 Log 2 |
| C=C1/C(=C\C=C2/CCC[C@]3(C)[C@@H]([C@H](C)CCCC(C)(C)O)CC[C@@H]23)C[C@@H](O)C[C@@H]1O [Calcitriol] | – | NAGS expression, Fold change (Log 2) vs untreated [3, 5]: 1.2 Log 2 |
| CC1(COc2ccc3c(c2)ncn3-c2ccc3cccc(N4CCC(N)CC4)c3n2)COC1 [Crenolanib] | 2.79 | number of urea cycle genes whose expression was significantly up-regulated [4]: four; Up-regulated Genes [4]: ASS1, ASL, OTC, ARG1 |
| c1cc(-c2cnn3cc(-c4ccc(OCCN5CCCCC5)cc4)cnc23)ccn1 [Dorsomorphin] | 4.78 | – |
| O=C(N[C@H]1CN2CCC1CC2)c1cc2cccc(Cl)c2s1 [EVP-6124 (hydrochloride) (encenicline), encenicline] | – | NAGS expression, Fold change (Log 2) vs untreated [3, 5]: 0.75 Log 2 |
| CS[C@H]1SC[C@H]2C(=O)N(C)[C@@H](C(C)C)C(=O)OC[C@@H](NC(=O)c3cnc4ccccc4n3)C(=O)N[C@@H](C)C(=O)N(C)[C@@H]1C(=O)N(C)[C@@H](C(C)C)C(=O)OC[C@@H](NC(=O)c1cnc3ccccc3n1)C(=O)N[C@@H](C)C(=O)N2C [Echinomycin] | – | number of urea cycle genes whose expression was significantly up-regulated [4]: six |
| CCn1c(=O)c(-c2ccc(-c3cncs3)cc2Cl)cc2cnc(Nc3ccc(N4CCN(C)CC4)cc3)nc21 [FRAX597] | – | number of urea cycle genes whose expression was significantly up-regulated [4]: five |
| COc1cc2c(Oc3ccc(NC(=O)C4(C(=O)Nc5ccc(F)cc5)CC4)cc3F)ccnc2cc1OCCCN1CCOCC1 [Foretinib (GSK1363089), Foretinib] | 4.09 | – |
| O=C(Nc1nc2cccc(-c3ccc(CN4CCS(=O)(=O)CC4)cc3)n2n1)C1CC1 [GLPG0634] | 1.54 | – |
| Cc1cc(Nc2cc(CN3CCOCC3)c3nc(C)c(Cc4ccc(Cl)cc4F)n3n2)n[nH]1 [LY2784544] | 2.78 | – |
| Cc1ccc(F)c(NC(=O)Nc2ccc(-c3cccc4[nH]nc(N)c34)cc2)c1 [Linifanib (ABT-869), Linifanib] | 2.87 | – |
| O=C(NCCCNc1nc(Nc2cccc(CN3CCOCC3)c2)ncc1C1CC1)C1CCC1 [MRT67307] | 1.68 | – |
| N#CCNC(=O)c1ccc(-c2ccnc(Nc3ccc(N4CCOCC4)cc3)n2)cc1 [Momelotinib] | 3.52 | number of urea cycle genes whose expression was significantly up-regulated [4]: three; Up-regulated Genes [4]: CPS1, OTC, ARG1 |
| CN(c1ncccc1CNc1nc(Nc2ccc3c(c2)CC(=O)N3)ncc1C(F)(F)F)S(C)(=O)=O [PF-00562271] | 3.3 | – |
| CC1(C)CC(=O)c2c(C(F)(F)F)nn(-c3ccc(C(N)=O)c(N[C@H]4CC[C@H](OC(=O)CN)CC4)c3)c2C1 [PF-04929113 (SNX-5422)] | 1.73 | – |
| CNC(=O)c1ccc(C)c(-n2c(C)cc(OCc3ccc(F)cc3F)c(Br)c2=O)c1 [PH-797804] | 1.53 | – |
| C1=C/COCc2cc(ccc2OCCN2CCCC2)Nc2nccc(n2)-c2cccc(c2)COC/1 [Pacritinib (SB1518), Pacritinib] | – | number of urea cycle genes whose expression was significantly up-regulated [4]: five; Up-regulated Genes [4]: CPS1, ASS1, ASL, OTC, ARG1 |
